Data published in US9771370B2, “Compounds for the inhibition of indoleamine-2,3-dioxygenase” (Merck Patent GmbH, priority 2014, dated 2017).
Values joined by “and” are separate entries in the source; they are usually repeats but may differ in a detail not shown here. Equal entries are not always repeated.

The compounds below were run against Recombinant human IDO (Homo sapiens, UniProt P14902) (assay: Bridge-IT tryptophan fluorescence assay of human IDO-1 inhibition). Details: recombinant human IDO 7.5 nM, L-tryptophan.
Type: biochemical
Procedure, shortened: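 Two protocol variants: 100 μM L-Trp for 90 min at 37 °C, or 30 min enzyme–compound pre-incubation at 25 °C, then 50 μM L-Trp for 60 min at 25 °C. Reaction stopped in Bridge-IT solution A for 30 min at 30 °C.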

Recombinant human IDO, sequence (P14902 whole entry): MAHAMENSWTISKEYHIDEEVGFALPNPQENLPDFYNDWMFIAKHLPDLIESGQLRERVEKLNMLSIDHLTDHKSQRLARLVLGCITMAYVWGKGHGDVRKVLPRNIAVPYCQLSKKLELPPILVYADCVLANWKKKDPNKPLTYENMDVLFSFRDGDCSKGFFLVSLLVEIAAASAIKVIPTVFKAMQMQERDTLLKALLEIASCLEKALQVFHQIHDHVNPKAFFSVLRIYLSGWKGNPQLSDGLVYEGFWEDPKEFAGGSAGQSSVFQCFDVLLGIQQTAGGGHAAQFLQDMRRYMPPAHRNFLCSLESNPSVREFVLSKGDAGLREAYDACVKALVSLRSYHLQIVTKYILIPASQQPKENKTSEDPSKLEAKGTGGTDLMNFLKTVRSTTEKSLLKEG

IC50 | Compound
> 1000 nM | FC1(CCC2c3nc(C(F)(F)F)ccc3-c3cncn32)CCCCC1 (single isomer, unassigned) [Compound 76b, 7-[2-(1-fluorocyclohexyl)ethyl]-10-(trifluoromethyl)-4,6,9-triazatricyclo[6.4.0.0^[2,6]]dodeca-1(8),2,4,9,11-pentaene]
< 100 nM | NC(=O)CC1CCC(F)(CCC2c3c(Cl)cccc3-c3cncn32)CC1 (single isomer, unassigned) [Compound 113d, 2-[4-[2-[6-chloro-5H-imidazo[4,3-a]isoindol-5-yl]ethyl]-4-fluorocyclohexyl]acetamide]
< 100 nM | CN(C)C(=O)C1CCC(F)(CCC2c3c(Cl)cccc3-c3cncn32)CC1 (single isomer, unassigned) [Compound 114a, 4-[2-[6-chloro-5H-imidazo[4,3-a]isoindol-5-yl]ethyl]-4-fluoro-N,N-dimethylcyclohexane-1-carboxamide]
< 100 nM | NC(=O)C1CCC(F)(CCC2c3ccccc3-c3cncn32)CC1 (single isomer, unassigned) [Compound 79d, 4-fluoro-4-[2-[5H-imidazo[4,3-a]isoindol-5-yl]ethyl]cyclohexane-1-carboxamide]
> 1000 nM | FC1(CCC2c3c(Cl)cccc3-c3cncn32)CCC2(CC1)CC2 (single isomer, unassigned) [Compound 91b, 6-chloro-5-(2-[6-fluorospiro[2.5]octan-6-yl]ethyl)-5H-imidazo[4,3-a]isoindole]
100 to 1000 nM | OC1CCC(F)(CCC2c3c(Cl)cccc3-c3cncn32)CC1 (single isomer, unassigned) [Compound 71a, 4-[2-[6-chloro-5H-imidazo[4,3-a]isoindol-5-yl]ethyl]-4-fluorocyclohexan-1-ol]
> 1000 nM | Fc1cccc2c1-c1cncn1C2CCC1(F)CCCCC1 (single isomer, unassigned) [Compound 36a, 9-fluoro-5-(2-(1-fluorocyclohexyl)ethyl)-5H-imidazo[5,1-a]isoindole]
> 1000 nM | CC(C)[C@H](N)C(=O)N1CCC(F)(CCC2c3ccccc3-c3cncn32)CC1 (single isomer, unassigned) [Compound 89b]
> 1000 nM | OC1CCC(F)(CCC2c3nccc(F)c3-c3cncn32)CC1 (stereo not shown) [Compound 103b, 4-fluoro-4-(2-[12-fluoro-4,6,9-triazatricyclo[6.4.0.0^[2,6]]dodeca-1(8),2,4,9,11-pentaen-7-yl]ethyl)cyclohexan-1-ol]
100 to 1000 nM | Fc1ccc2c(n1)C(CCC1(F)CCCCC1)n1cncc1-2 (stereo not shown) [Compound 17, 10-fluoro-7-[2-(1-fluorocyclohexyl)ethyl]-4,6,9-triazatricyclo[6.4.0.0^[2,6]]dodeca-1(8),2,4,9,11-pentaene]
> 1000 nM | CC1(C)CCC(F)(CCC2c3ncncc3-c3cncn32)CC1 (single isomer, unassigned) [Compound 66a, 7-[2-(1-fluoro-4,4-dimethylcyclohexyl)ethyl]-4,6,9,11-tetraazatricyclo[6.4.0.0^[2,6]]dodeca-1(8),2,4,9,11-pentaene]
< 100 nM | OC1CCC(F)(CCC2c3c(F)ccc(F)c3-c3cncn32)CC1 (single isomer, unassigned) [Compound 38d, 4-(2-(6,9-difluoro-5H-imidazo[5,1-a]isoindol-5-yl)ethyl)-4-fluorocyclohexanol]
> 1000 nM | FC1(CCC2c3c(Cl)cccc3-c3cncn32)CCOCC1 (single isomer, unassigned) [Compound 96a, 6-chloro-5-[2-(4-fluorooxan-4-yl)ethyl]-5H-imidazo[4,3-a]isoindole]
> 1000 nM | COc1ccc2c(n1)C(CCC1(F)CCC(F)(F)CC1)n1cncc1-2 (single isomer, unassigned) [Compound 34b, 10-methoxy-7-[2-(1,4,4-trifluorocyclohexyl)ethyl]-4,6,9-triazatricyclo[6.4.0.0^[2,6]]dodeca-1(8),2,4,9,11-pentaene]
< 100 nM | CN(C)C(=O)C1CCC(F)(CCC2c3c(Cl)cccc3-c3cncn32)CC1 (single isomer, unassigned) [Compound 114b, 4-[2-[6-chloro-5H-imidazo[4,3-a]isoindol-5-yl]ethyl]-4-fluoro-N,N-dimethylcyclohexane-1-carboxamide]
> 1000 nM | COc1ccc2c(n1)C(CCC1(F)CCCCC1)n1cncc1-2 (single isomer, unassigned) [Compound 32a, 7-[2-(1-fluorocyclohexyl)ethyl]-10-methoxy-4,6,9-triazatricyclo[6.4.0.0^[2,6]]dodeca-1(8),2,4,9,11-pentaene]
> 1000 nM | FC1(CCC2c3ccccc3-c3cncn32)CCOCC1 (single isomer, unassigned) [Compound 94a, 5-[2-(4-fluorooxan-4-yl)ethyl]-5H-imidazo[4,3-a]isoindole]

More lines, now with the values behind:

Compound | IC50
OC1CCC(C(F)(F)CC2c3c(F)ccc(F)c3-c3cncn32)CC1 (mixture of isomers) [Compound 78a, 4-(2-[6,9-difluoro-5H-imidazo[4,3-a]isoindol-5-yl]-1,1-difluoroethyl)cyclohexan-1-ol] | 100 to 1000 nM
OC(CC1c2nc(C(F)(F)F)ccc2-c2cncn21)C1CCC(F)(F)CC1 (single isomer, unassigned) [Compound 77c, 1-(4,4-difluorocyclohexyl)-2-[10-(trifluoromethyl)-4,6,9-triazatricyclo[6.4.0.0^[2,6]]dodeca-1(8),2,4,9,11-pentaen-7-yl]ethan-1-ol] | > 1000 nM
OC(CC1c2ncncc2-c2cncn21)C1CCCCC1 (stereo not shown) [Compound 67a, 1-cyclohexyl-2-[4,6,9,11-tetraazatricyclo[6.4.0.0^[2,6]]dodeca-1(8),2,4,9,11-pentaen-7-yl]ethan-1-ol] | > 1000 nM and 100 to 1000 nM
OC(CC1c2ncccc2-c2cncn21)C1(F)CCC(F)(F)CC1 (single isomer, unassigned) [Compound 87b, 2-[4,6,9-triazatricyclo[6.4.0.0^[2,6]]dodeca-1(8),2,4,9,11-pentaen-7-yl]-1-(1,4,4-trifluorocyclohexyl)ethan-1-ol] | > 1000 nM
OC(CC1c2ncccc2-c2cncn21)C1(F)CCC(F)(F)CC1 (single isomer, unassigned) [Compound 87d, 2-[4,6,9-triazatricyclo[6.4.0.0^[2,6]]dodeca-1(8),2,4,9,11-pentaen-7-yl]-1-(1,4,4-trifluorocyclohexyl)ethan-1-ol] | 100 to 1000 nM
c1cnc2c(c1)-c1cncn1C2CCC1CCCCC1 (stereo not shown) [Compound 50, 7-(2-cyclohexylethyl)-4,6,9-triazatricyclo[6.4.0.0^[2,6]]dodeca-1(8),2,4,9,11-pentaene] | 100 to 1000 nM
OC1CCC(C(F)(F)CC2c3c(F)ccc(F)c3-c3cncn32)CC1 (mixture of isomers) [Compound 78b, 4-(2-[6,9-difluoro-5H-imidazo[4,3-a]isoindol-5-yl]-1,1-difluoroethyl)cyclohexan-1-ol] | > 1000 nM
OC(CC1c2c(Cl)cccc2-c2cncn21)C1(F)CCCCC1 (single isomer, unassigned) [Compound 83a, 2-[6-chloro-5H-imidazo[4,3-a]isoindol-5-yl]-1-(1-fluorocyclohexyl)ethan-1-ol] | > 1000 nM
Fc1cccc2c1C(CC(F)(F)C1CCCCC1)n1cncc1-2 (racemic) [Compound 65, 5-(2-cyclohexyl-2,2-difluoroethyl)-6-fluoro-5H-imidazo[4,3-a]isoindole] | 100 to 1000 nM
OC(CC1c2nc(OC3CC3)ccc2-c2cncn21)C1CCC(F)(F)CC1 (single isomer, unassigned) [Compound 69a, 2-[10-cyclopropoxy-4,6,9-triazatricyclo[6.4.0.0^[2,6]]dodeca-1(8),2,4,9,11-pentaen-7-yl]-1-(4,4-difluorocyclohexyl)ethan-1-ol] | 100 to 1000 nM
COc1ccc2c(n1)C(CC(N)C1CCC(C)(C)CC1)n1cncc1-2 (single isomer, unassigned) [Compound 119b, 1-(4,4-dimethylcyclohexyl)-2-[10-methoxy-4,6,9-triazatricyclo[6.4.0.0^[2,6]]dodeca-1(8),2,4,9,11-pentaen-7-yl]ethan-1-amine] | > 1000 nM
CC1(C)CCC(C(O)CC2c3nc(F)ccc3-c3cncn32)CC1 (single isomer, unassigned) [Compound 25c, 1-(4,4-dimethylcyclohexyl)-2-[10-fluoro-4,6,9-triazatricyclo[6.4.0.0^[2,6]]dodeca-1(8),2,4,9,11-pentaen-7-yl]ethan-1-ol] | > 1000 nM
OC1CCC(C(F)(F)CC2c3c(F)cccc3-c3cncn32)CC1 (mixture of isomers) [Compound 75b, 4-(1,1-difluoro-2-[6-fluoro-5H-imidazo[4,3-a]isoindol-5-yl]ethyl)cyclohexan-1-ol] | 100 to 1000 nM
OC(CC1c2ncccc2-c2cncn21)C1CCC(C2(O)CC2)CC1 (single isomer, unassigned) [Compound 117b, 1-[4-[1-hydroxy-2-[4,6,9-triazatricyclo[6.4.0.0^[2,6]]dodeca-1(8),2,4,9,11-pentaen-7-yl]ethyl]cyclohexyl]cyclopropan-1-ol] | 100 to 1000 nM
OC(CC1c2nccc(F)c2-c2cncn21)C1CCCCC1 (single isomer, unassigned) [Compound 101d, 1-cyclohexyl-2-[12-fluoro-4,6,9-triazatricyclo[6.4.0.0^[2,6]]dodeca-1(8),2,4,9,11-pentaen-7-yl]ethan-1-ol] | > 1000 nM
OC(CC1c2nc(F)ccc2-c2cncn21)C1CCC(F)(F)CC1 (single isomer, unassigned) [Compound 26a, 1-(4,4-difluorocyclohexyl)-2-[10-fluoro-4,6,9-triazatricyclo[6.4.0.0^[2,6]]dodeca-1(8),2,4,9,11-pentaen-7-yl]ethan-1-ol] | > 1000 nM
OC(CC1c2nccc(F)c2-c2cncn21)C1CCCCC1 (single isomer, unassigned) [Compound 101c, 1-cyclohexyl-2-[12-fluoro-4,6,9-triazatricyclo[6.4.0.0^[2,6]]dodeca-1(8),2,4,9,11-pentaen-7-yl]ethan-1-ol] | > 1000 nM
